Results on ten compounds are retold here after PubChem BioAssay (NCI).

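Cells were grown in 96-well plates and exposed to each compound for 48 hours at five concentrations; endpoints were interpolated linearly between bracketing concentrations, or set to the highest concentration if not reached. The concentration for 50% growth inhibition is given as GI50. TGI: concentration producing complete growth inhibition.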

Among the test systems are 786-0 renal; A498 renal; ACHN renal; M14 melanoma; MOLT-4 leukemia; NCI-H23 lung; OVCAR-4 ovarian; RXF 393 renal; SK-OV-3 ovarian; HL-60(TB) leukemia.
What all share (test): NCI-60 cell line screen, 48 h

Take `CC(C)C(=O)c1c(C(F)(F)F)n([O-])c2ccccc2[n+]1=O`: the GI50 was 1.65 µM in the assay with 786-0 renal; 7.34 µM with A498 renal; 2.3 µM in the assay on ACHN renal; 1.74 µM with M14 melanoma; 1.27 µM with MOLT-4 leukemia; 1.67 µM with NCI-H23 lung. In addition, the figures for the GI50 with OVCAR-4 ovarian, in the assay on RXF 393 renal and in the assay on SK-OV-3 ovarian were 4.47 µM, 2.35 µM and 2.66 µM, respectively. Further, the TGI was determined as 3.73 µM in the assay with 786-0 renal; 16.2 µM in the assay on A498 renal; 3.76 µM in the assay with M14 melanoma; 9.65 µM in the assay with MOLT-4 leukemia; 3.41 µM with NCI-H23 lung; 18.8 µM in the assay with OVCAR-4 ovarian. For the same compound, the TGI is 13 µM with RXF 393 renal and over 100 µM in the assay on SK-OV-3 ovarian.

Take `C=CC(=O)Nc1cccc(Oc2nc(Nc3ccc(N4CCN(C)CC4)cc3OC)ncc2Cl)c1`: the GI50 in the assay with 786-0 renal was 1.47 µM; in the assay with A498 renal, 1.11 µM; in the assay on ACHN renal, 0.421 µM; with M14 melanoma, 1.82 µM; with MOLT-4 leukemia it was 2.57 µM; in the assay on NCI-H23 lung it was 3.92 µM. Besides, the GI50 was 2.36 µM in the assay on OVCAR-4 ovarian, 1.49 µM with RXF 393 renal and 0.342 µM with SK-OV-3 ovarian. Besides, the TGI in the assay with 786-0 renal was 2.94 µM; in the assay on A498 renal, 3.49 µM; with ACHN renal, 3.14 µM; in the assay on M14 melanoma it was 3.47 µM; with MOLT-4 leukemia, over 23.4 µM; with NCI-H23 lung, 23.7 µM. Besides, the TGI in the assay with OVCAR-4 ovarian is over 39.4 µM; in the assay with RXF 393 renal, 3.12 µM; in the assay with SK-OV-3 ovarian, 5.33 µM.

As to `Cn1c(-c2c(N)n(Cc3ccc(F)cc3)c3nc(C#N)c(C#N)nc23)nc2ccccc21`, the GI50 with 786-0 renal is 0.918 µM; in the assay with ACHN renal it was 0.829 µM; with HL-60(TB) leukemia, 3.76 µM; with M14 melanoma, 3.48 µM; with NCI-H23 lung it was 1.3 µM; with OVCAR-4 ovarian, 2.3 µM. Besides, the values for the GI50 in the assay on RXF 393 renal and with SK-OV-3 ovarian were 1.7 µM and 11 µM, respectively. For the same compound, the TGI in the assay on 786-0 renal was 3.59 µM; with ACHN renal, 2.43 µM; with HL-60(TB) leukemia, over 50 µM; in the assay on M14 melanoma it was over 50 µM; in the assay on NCI-H23 lung, 4.08 µM; in the assay on OVCAR-4 ovarian, over 50 µM. The results for the TGI in the assay with RXF 393 renal and with SK-OV-3 ovarian were 4.86 µM and 33.8 µM, respectively.

Turning to `CC(=O)OCC1OC(n2ncc(=O)[nH]c2=O)C(OC(C)=O)C1OC(C)=O` (centres undefined), the TGI in the assay with 786-0 renal, in the assay on ACHN renal, in the assay with M14 melanoma, with MOLT-4 leukemia, with NCI-H23 lung and in the assay on OVCAR-4 ovarian was over 100 µM each time. Also, the TGI in the assay with RXF 393 renal and in the assay with SK-OV-3 ovarian was over 100 µM throughout.

For `CN1C(=O)C2(c3ccccc31)C1CC3C(CO1)C1C2C3(CO)CN1C#N` (centres undefined), the TGI in the assay on 786-0 renal, in the assay with ACHN renal, in the assay on HL-60(TB) leukemia, in the assay with M14 melanoma, in the assay on MOLT-4 leukemia and in the assay on NCI-H23 lung was over 100 µM in each case. Moreover, the TGI with OVCAR-4 ovarian, in the assay on RXF 393 renal and in the assay with SK-OV-3 ovarian was over 100 µM throughout.

Take `C=C1C(=O)C2=CC1CCC(=O)C1(C)CCC(OC(C)=O)C(C)(C)C1CC2O` (centres undefined): the TGI in the assay on 786-0 renal was over 37.7 µM; in the assay with A498 renal, 12.6 µM; in the assay with ACHN renal, 6.82 µM; in the assay with M14 melanoma, 10.4 µM; in the assay with NCI-H23 lung, 8.62 µM; in the assay on OVCAR-4 ovarian it was 10.8 µM. The TGI with RXF 393 renal stood at 6.31 µM; in the assay with SK-OV-3 ovarian, 23 µM.

As for `O=C(O)Cc1ccc(N=Nc2c(O)c(C(=O)O)cc3ccccc23)cc1`, the TGI with 786-0 renal, in the assay on ACHN renal, in the assay on HL-60(TB) leukemia, in the assay on M14 melanoma, with MOLT-4 leukemia and with OVCAR-4 ovarian was over 100 µM each time. Further, the TGI with RXF 393 renal and with SK-OV-3 ovarian was over 100 µM each time.

Consider `O=C1CC(N2C(=O)/C(=C/C(Cl)=C\c3ccc([N+](=O)[O-])cc3)SC2=S)C(=O)N1c1ccc(O)cc1` (centres undefined), for which the GI50 in the assay on 786-0 renal is 1.23 µM; in the assay on ACHN renal it was 1.36 µM; with HL-60(TB) leukemia, 2.44 µM; with M14 melanoma, 1.46 µM; in the assay on MOLT-4 leukemia, 0.544 µM; in the assay with NCI-H23 lung, 1.56 µM. For the same compound, the GI50 was 5.13 µM with OVCAR-4 ovarian, 1.53 µM in the assay on RXF 393 renal and 2.99 µM in the assay with SK-OV-3 ovarian. The TGI in the assay with 786-0 renal stood at 4.81 µM; in the assay with ACHN renal it was 2.76 µM; in the assay with HL-60(TB) leukemia, 9.57 µM; in the assay on M14 melanoma it was 3.31 µM; in the assay on MOLT-4 leukemia, 15.3 µM; in the assay with NCI-H23 lung it was 3.52 µM. Further, the results for the TGI in the assay on OVCAR-4 ovarian, with RXF 393 renal and with SK-OV-3 ovarian were 17.3 µM, 3.22 µM and 9.26 µM, respectively.

`CN(C)c1ccccc1[CH2][Ga]([Cl])[CH2]c1ccccc1N(C)C`: the GI50 in the assay with 786-0 renal was 1.38 µM; in the assay with ACHN renal, 1.43 µM; with HL-60(TB) leukemia it was 2.7 µM; with M14 melanoma, 1.3 µM; in the assay with MOLT-4 leukemia, 0.927 µM; in the assay with NCI-H23 lung, 0.595 µM. For the same compound, the GI50 was 1.24 µM with OVCAR-4 ovarian and 1.71 µM in the assay on SK-OV-3 ovarian. The TGI in the assay on 786-0 renal came to 2.8 µM; with ACHN renal it was 3.12 µM; with HL-60(TB) leukemia, 5.36 µM; with M14 melanoma, 2.85 µM; in the assay with MOLT-4 leukemia, 5.37 µM; in the assay with NCI-H23 lung, 2.06 µM. Also, the TGI with OVCAR-4 ovarian is 3.07 µM; in the assay on SK-OV-3 ovarian, 3.8 µM.

With `CC[PH+](CC)CC.CC[PH+](CC)CC.[Au]`, the GI50 in the assay on 786-0 renal is 7.35 µM; in the assay on ACHN renal it was 17.6 µM; in the assay on HL-60(TB) leukemia it was 0.345 µM; with M14 melanoma it was 6.68 µM; with MOLT-4 leukemia, 5.33 µM; in the assay on NCI-H23 lung, 13.3 µM. In addition, the GI50 with OVCAR-4 ovarian was 12.5 µM; with SK-OV-3 ovarian, 20.9 µM. Besides, the TGI in the assay with 786-0 renal was found to be 19.7 µM; with ACHN renal it was 31.4 µM; with HL-60(TB) leukemia, 2.09 µM; in the assay on M14 melanoma, 22 µM; in the assay on MOLT-4 leukemia, 24.1 µM; with NCI-H23 lung, 28.6 µM. Also, the TGI in the assay on OVCAR-4 ovarian is 25.1 µM; with SK-OV-3 ovarian, 35.2 µM.
